Source: ChEMBL document CHEMBL5705893, “Targeting the mitotic checkpoint for cancer therapy with NMS-P715, an inhibitor of MPS1 kinase” (Cancer Res, 2010)
Activity calls are given as the source filed them. The calls are words filed in the database; no cut-off is given here.

Tests used:
Casein kinase 2 = Casein kinase 2 (Homo sapiens, UniProt P67870+P68400+P19784+Q8NEV1); experiment: Inhibition of recombinant CK2 (unknown origin); assay type: protein assay
[1] = target: Eukaryotic elongation factor 2 kinase (Homo sapiens, UniProt O00418); experiment: Inhibition of recombinant EEF2K (unknown origin)
Eukaryotic elongation factor 2 kinase, sequence (O00418 whole entry): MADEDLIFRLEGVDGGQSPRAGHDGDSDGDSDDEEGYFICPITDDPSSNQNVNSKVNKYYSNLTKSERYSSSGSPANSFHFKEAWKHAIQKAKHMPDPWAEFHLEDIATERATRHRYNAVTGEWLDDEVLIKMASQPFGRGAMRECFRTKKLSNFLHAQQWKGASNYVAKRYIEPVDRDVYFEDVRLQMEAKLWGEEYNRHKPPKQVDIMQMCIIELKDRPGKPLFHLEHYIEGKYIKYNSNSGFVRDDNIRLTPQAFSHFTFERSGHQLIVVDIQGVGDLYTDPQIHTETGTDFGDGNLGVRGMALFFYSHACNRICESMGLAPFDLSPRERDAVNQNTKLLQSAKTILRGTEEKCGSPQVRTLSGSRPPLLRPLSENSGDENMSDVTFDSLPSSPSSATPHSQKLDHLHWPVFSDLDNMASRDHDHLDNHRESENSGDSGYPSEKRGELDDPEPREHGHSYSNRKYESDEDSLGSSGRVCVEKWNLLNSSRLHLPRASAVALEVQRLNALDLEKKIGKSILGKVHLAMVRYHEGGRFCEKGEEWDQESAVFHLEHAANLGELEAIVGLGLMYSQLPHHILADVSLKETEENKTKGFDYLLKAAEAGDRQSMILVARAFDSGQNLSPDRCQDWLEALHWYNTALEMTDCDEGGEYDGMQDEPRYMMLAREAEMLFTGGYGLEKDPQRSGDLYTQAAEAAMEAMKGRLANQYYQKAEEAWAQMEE

Focal adhesion kinase 1 = Focal adhesion kinase 1 (Homo sapiens, UniProt Q05397); experiment: Inhibition of recombinant FAK (unknown origin)
[2] = target: Receptor-type tyrosine-protein kinase FLT3 (Homo sapiens, UniProt P36888); experiment: Inhibition of recombinant FLT3 (unknown origin)
Receptor-type tyrosine-protein kinase FLT3, sequence (P36888 whole entry): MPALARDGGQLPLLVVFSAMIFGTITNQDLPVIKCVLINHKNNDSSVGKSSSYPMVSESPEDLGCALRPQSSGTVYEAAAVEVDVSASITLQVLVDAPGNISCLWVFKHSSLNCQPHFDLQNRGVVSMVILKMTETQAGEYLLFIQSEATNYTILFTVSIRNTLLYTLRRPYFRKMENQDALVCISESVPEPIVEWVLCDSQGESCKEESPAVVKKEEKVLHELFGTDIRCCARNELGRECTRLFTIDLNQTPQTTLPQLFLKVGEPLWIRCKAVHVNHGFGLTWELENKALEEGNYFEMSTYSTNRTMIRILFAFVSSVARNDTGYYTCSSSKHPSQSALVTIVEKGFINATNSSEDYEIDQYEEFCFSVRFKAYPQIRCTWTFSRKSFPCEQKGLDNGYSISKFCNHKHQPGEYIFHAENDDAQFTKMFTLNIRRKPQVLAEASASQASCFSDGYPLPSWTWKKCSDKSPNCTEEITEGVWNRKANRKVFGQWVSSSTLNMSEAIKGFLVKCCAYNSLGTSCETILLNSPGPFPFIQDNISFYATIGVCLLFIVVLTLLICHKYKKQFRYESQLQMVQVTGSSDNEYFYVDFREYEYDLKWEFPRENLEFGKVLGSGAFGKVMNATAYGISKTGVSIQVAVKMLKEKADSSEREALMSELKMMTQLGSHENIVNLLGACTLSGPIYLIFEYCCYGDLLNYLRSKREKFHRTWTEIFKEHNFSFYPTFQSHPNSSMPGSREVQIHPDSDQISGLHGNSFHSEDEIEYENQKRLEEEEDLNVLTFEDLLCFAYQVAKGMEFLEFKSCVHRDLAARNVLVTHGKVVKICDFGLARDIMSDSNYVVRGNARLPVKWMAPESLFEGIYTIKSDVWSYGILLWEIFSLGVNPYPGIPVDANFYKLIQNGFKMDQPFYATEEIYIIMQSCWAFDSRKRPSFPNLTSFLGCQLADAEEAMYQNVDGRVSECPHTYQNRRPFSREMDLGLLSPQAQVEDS

[3] = target: Glycogen synthase kinase-3 beta (Homo sapiens, UniProt P49841); experiment: Inhibition of recombinant GSK3beta (unknown origin)
Glycogen synthase kinase-3 beta, sequence (P49841 whole entry): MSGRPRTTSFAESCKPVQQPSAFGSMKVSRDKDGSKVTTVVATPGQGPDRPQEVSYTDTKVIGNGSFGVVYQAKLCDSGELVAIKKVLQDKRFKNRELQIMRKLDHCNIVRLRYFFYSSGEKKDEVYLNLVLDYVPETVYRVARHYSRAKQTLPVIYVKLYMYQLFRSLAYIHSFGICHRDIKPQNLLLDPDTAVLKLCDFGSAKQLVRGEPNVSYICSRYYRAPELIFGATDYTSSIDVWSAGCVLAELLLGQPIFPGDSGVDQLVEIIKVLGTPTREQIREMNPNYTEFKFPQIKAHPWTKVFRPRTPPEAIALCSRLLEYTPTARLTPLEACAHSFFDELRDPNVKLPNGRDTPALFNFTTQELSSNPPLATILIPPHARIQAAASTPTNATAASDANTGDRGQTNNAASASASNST

[4] = target: Inhibitor of nuclear factor kappa-B kinase subunit beta (Homo sapiens, UniProt O14920); experiment: Inhibition of recombinant IKK2 (unknown origin)
Inhibitor of nuclear factor kappa-B kinase subunit beta, sequence (O14920 whole entry): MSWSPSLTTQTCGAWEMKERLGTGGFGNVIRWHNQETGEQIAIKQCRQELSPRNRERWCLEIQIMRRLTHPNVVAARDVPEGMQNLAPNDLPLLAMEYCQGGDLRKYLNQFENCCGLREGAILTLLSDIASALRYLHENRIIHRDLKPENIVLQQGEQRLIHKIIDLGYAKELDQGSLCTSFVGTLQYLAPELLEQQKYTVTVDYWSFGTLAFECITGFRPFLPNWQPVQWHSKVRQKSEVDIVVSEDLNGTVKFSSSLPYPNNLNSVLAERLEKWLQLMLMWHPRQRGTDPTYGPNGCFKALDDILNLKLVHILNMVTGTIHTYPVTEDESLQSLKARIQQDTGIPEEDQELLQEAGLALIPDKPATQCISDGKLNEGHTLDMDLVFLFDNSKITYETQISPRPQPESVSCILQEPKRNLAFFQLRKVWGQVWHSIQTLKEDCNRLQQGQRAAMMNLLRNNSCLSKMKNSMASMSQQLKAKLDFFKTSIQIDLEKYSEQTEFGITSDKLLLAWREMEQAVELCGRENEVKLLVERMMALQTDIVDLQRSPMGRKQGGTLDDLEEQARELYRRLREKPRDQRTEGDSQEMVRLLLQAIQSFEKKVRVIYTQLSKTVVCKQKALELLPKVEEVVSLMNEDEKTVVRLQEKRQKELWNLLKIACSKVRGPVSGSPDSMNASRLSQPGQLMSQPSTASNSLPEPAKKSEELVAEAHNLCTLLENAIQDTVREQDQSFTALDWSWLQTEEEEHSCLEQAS

[5] = target: Tyrosine-protein kinase Lck (Homo sapiens, UniProt P06239); experiment: Inhibition of recombinant LCK (unknown origin)
Tyrosine-protein kinase Lck, sequence (P06239 whole entry): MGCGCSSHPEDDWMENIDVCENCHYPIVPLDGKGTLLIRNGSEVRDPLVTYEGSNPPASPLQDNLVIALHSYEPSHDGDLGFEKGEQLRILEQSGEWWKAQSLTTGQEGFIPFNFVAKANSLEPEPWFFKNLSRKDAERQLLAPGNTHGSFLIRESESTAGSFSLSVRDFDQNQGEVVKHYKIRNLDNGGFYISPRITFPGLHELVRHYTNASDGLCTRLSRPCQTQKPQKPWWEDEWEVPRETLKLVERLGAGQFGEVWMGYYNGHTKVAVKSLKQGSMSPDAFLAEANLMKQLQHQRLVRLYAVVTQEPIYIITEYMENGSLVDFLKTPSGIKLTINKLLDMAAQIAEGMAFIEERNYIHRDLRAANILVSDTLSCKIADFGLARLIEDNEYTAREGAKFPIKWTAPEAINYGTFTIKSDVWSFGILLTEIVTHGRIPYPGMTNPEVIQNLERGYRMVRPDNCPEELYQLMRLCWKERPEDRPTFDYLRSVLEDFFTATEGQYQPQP

[6] = target: Serine/threonine-protein kinase PLK2 (Homo sapiens, UniProt Q9NYY3); experiment: Inhibition of recombinant PLK2 (unknown origin)
Serine/threonine-protein kinase PLK2, sequence (Q9NYY3 whole entry): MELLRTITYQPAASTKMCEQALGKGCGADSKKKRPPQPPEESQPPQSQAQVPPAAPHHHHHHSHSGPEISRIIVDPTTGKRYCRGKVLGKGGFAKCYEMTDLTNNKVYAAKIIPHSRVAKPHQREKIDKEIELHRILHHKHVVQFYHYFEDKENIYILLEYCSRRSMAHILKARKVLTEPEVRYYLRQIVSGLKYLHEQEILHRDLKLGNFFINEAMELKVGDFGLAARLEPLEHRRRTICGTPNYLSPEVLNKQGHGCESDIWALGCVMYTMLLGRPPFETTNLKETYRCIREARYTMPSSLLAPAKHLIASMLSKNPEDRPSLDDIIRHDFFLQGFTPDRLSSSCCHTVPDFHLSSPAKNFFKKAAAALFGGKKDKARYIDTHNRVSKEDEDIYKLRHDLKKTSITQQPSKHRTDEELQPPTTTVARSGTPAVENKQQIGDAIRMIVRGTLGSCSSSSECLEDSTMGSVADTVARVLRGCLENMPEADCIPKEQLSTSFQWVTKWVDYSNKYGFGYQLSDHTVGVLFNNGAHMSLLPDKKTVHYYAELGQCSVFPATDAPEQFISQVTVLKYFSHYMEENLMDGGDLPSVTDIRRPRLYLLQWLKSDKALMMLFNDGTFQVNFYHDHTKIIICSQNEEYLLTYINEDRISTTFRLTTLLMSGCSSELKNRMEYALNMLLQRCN

[7] = Inhibition of recombinant SULU1 (unknown origin); set-up: species or system Homo sapiens
SNB-75 = experiment: Antiproliferative activity against human SNB-75 cells assessed as inhibition of cell growth incubated for 72 hrs by celltiter-glo assay; assay type: functional, cell-based; settings: SNB-75, 72 h
HT1197 = experiment: Antiproliferative activity against human HT1197 cells assessed as inhibition of cell growth incubated for 72 hrs by celltiter-glo assay; assay type: functional, cell-based; settings: HT1197, 72 h
HCT-15 = experiment: Antiproliferative activity against human HCT-15 cells assessed as inhibition of cell growth incubated for 72 hrs by celltiter-glo assay; assay type: functional, cell-based; settings: HCT-15, 72 h
SW-620 = experiment: Antiproliferative activity against human SW620 cells assessed as inhibition of cell growth incubated for 72 hrs by celltiter-glo assay; assay type: functional, cell-based; settings: SW-620, 72 h
KM12 = experiment: Antiproliferative activity against human KM12 cells assessed as inhibition of cell growth incubated for 72 hrs by celltiter-glo assay; assay type: functional, cell-based; settings: KM12, 72 h
COLO-741 = experiment: Antiproliferative activity against human COLO-741 cells assessed as inhibition of cell growth incubated for 72 hrs by celltiter-glo assay; assay type: functional, cell-based; settings: COLO-741, 72 h
CCRF-CEM = experiment: Antiproliferative activity against human CCRF-CEM cells assessed as inhibition of cell growth incubated for 72 hrs by celltiter-glo assay; assay type: functional, cell-based
HL-60 = experiment: Antiproliferative activity against human HL-60 cells assessed as inhibition of cell growth incubated for 72 hrs by celltiter-glo assay; assay type: functional, cell-based; settings: HL-60, 72 h
Calu-3 = experiment: Antiproliferative activity against human Calu-3 cells assessed as inhibition of cell growth incubated for 72 hrs by celltiter-glo assay; assay type: functional, cell-based; settings: Calu-3, 72 h
NCI-H460 = experiment: Antiproliferative activity against human NCI-H460 cells assessed as inhibition of cell growth incubated for 72 hrs by celltiter-glo assay; assay type: functional, cell-based; settings: NCI-H460, 72 h
NCI-H82 = experiment: Antiproliferative activity against human NCI-H82 cells assessed as inhibition of cell growth incubated for 72 hrs by celltiter-glo assay; assay type: functional, cell-based; settings: NCI-H82, 72 h
NCI-H2126 = experiment: Antiproliferative activity against human NCI-H2126 cells assessed as inhibition of cell growth incubated for 72 hrs by celltiter-glo assay; assay type: functional, cell-based; settings: NCI-H2126, 72 h
HOP-62 = experiment: Antiproliferative activity against human HOP-62 cells assessed as inhibition of cell growth incubated for 72 hrs by celltiter-glo assay; assay type: functional, cell-based; settings: HOP-62, 72 h
HCC78 = experiment: Antiproliferative activity against human HCC78 cells assessed as inhibition of cell growth incubated for 72 hrs by celltiter-glo assay; assay type: functional, cell-based; settings: HCC78, 72 h
Toledo = experiment: Antiproliferative activity against human Toledo cells assessed as inhibition of cell growth incubated for 72 hrs by celltiter-glo assay; assay type: functional, cell-based
SU-DHL-1 = experiment: Antiproliferative activity against human SU-DHL-1 cells assessed as inhibition of cell growth incubated for 72 hrs by celltiter-glo assay; assay type: functional, cell-based; settings: SU-DHL-1, 72 h
[8] = Antiproliferative activity against human DERL-7 cells assessed as inhibition of cell growth incubated for 72 hrs by celltiter-glo assay; assay type: functional, cell-based; settings: DERL7, 72 h
M14 = experiment: Antiproliferative activity against human M14 cells assessed as inhibition of cell growth incubated for 72 hrs by celltiter-glo assay; assay type: functional, cell-based; settings: M14, 72 h
UACC-257 = experiment: Antiproliferative activity against human UACC-257 cells assessed as inhibition of cell growth incubated for 72 hrs by celltiter-glo assay; assay type: functional, cell-based; settings: UACC-257, 72 h
LP-1 = experiment: Antiproliferative activity against human LP-1 cells assessed as inhibition of cell growth incubated for 72 hrs by celltiter-glo assay; assay type: functional, cell-based; settings: LP-1, 72 h
U-266 = experiment: Antiproliferative activity against human U-266 cells assessed as inhibition of cell growth incubated for 72 hrs by celltiter-glo assay; assay type: functional, cell-based; settings: U-266, 72 h
U2OS [9] = experiment: Antiproliferative activity against human U2OS cells assessed as inhibition of cell growth incubated for 72 hrs by celltiter-glo assay; assay type: functional, cell-based
CAKI-1 = experiment: Antiproliferative activity against human CAKI-1 cells assessed as inhibition of cell growth incubated for 72 hrs by celltiter-glo assay; assay type: functional, cell-based; settings: CAKI-1, 72 h
786-0 = experiment: Antiproliferative activity against human 786-0 cells assessed as inhibition of cell growth incubated for 72 hrs by celltiter-glo assay; assay type: functional, cell-based; settings: 786-0, 72 h
[10] = target: Serine/threonine-protein kinase Nek6 (Homo sapiens, UniProt Q9HC98); experiment: Inhibition of recombinant NEK6 (unknown origin) preincubated for 60 mins
Serine/threonine-protein kinase Nek6, sequence (Q9HC98 whole entry): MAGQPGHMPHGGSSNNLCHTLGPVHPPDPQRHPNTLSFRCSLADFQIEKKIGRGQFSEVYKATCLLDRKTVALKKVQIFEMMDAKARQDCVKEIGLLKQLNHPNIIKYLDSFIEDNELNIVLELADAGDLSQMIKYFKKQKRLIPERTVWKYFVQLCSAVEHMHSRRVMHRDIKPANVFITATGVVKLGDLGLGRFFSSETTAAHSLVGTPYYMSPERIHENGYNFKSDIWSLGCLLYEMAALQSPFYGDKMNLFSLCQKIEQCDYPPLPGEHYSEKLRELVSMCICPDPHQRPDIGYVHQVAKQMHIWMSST

HeLa [11] = experiment: Induction of mitotic arrest in human nocodazole-arrested HeLa cells assessed as delocalization of MAD2 at 1 micromol/L in presence of MG132; assay type: functional, cell-based; settings: dose 1.0 µmol/L
HeLa [12] = experiment: Induction of mitotic arrest in human nocodazole-arrested HeLa cells assessed as delocalization of BUB1 at 1 micromol/L in presence of MG132; assay type: functional, cell-based; settings: dose 1.0 µmol/L
HeLa [13] = experiment: Effect on CENPB level in human nocodazole-arrested HeLa cells at 1 micromol/L in presence of MG132; assay type: functional, cell-based; settings: dose 1.0 µmol/L
A2780 = experiment: Cell cycle arrest in human A2780 cells assessed as accumulation of cells at G1 phase at 0.2 to 1 micromol/L incubated for 24 hrs by FACS/PI staining based flow cytometric analysis; assay type: functional; settings: dose 0.2-1 µmol/L
HCT-116 = experiment: Cell cycle arrest in human HCT-116 cells assessed as accumulation of cells at G1 phase at 0.2 to 1 micromol/L incubated for 48 hrs by FACS/PI staining based flow cytometric analysis; assay type: functional; settings: dose 0.2-1 µmol/L
[14] = Toxicity in Athymic nu-nu nude mouse xenografted with human A2780 cells assessed as body weight loss at 90 mg/kg, po administered once a day for 7 days; assay type: organism-based; settings: in vivo, 168 h, time 7 day
U2OS [15] = experiment: Cytotoxicity against human U2OS cells expressing YFP-alpha tubulin assessed as cell death incubated for 86 hrs; assay type: functional, cell-based
[16] = Cmax in Athymic nu-nu mouse at 10 mg/kg, iv measured upto 24 hrs by LC-MS/MS analysis; assay type: ADME, organism-based; settings: in vivo

CCc1cccc(CC)c1NC(=O)c1nn(C)c2c1CCc1cnc(Nc3ccc(C(=O)NC4CCN(C)CC4)cc3OC(F)(F)F)nc1-2
IC50 (Casein kinase 2): 5.7 µM | IC50 [1]: > 10 µM | IC50 (Focal adhesion kinase 1): > 10 µM | IC50 [2]: > 10 µM | IC50 [3]: > 10 µM | IC50 [4]: > 10 µM | IC50 [5]: > 10 µM | IC50 [6]: > 10 µM | IC50 [7]: > 10 µM | IC50 (SNB-75): 2.2 µM | IC50 (HT1197): 8.3 µM | IC50 (HCT-15): 0.232 µM | IC50 (SW-620): 0.472 µM | IC50 (KM12): 0.586 µM | IC50 (COLO-741): 10 µM | IC50 (CCRF-CEM): 1.43 µM | IC50 (HL-60): 1.58 µM | IC50 (Calu-3): 1.44 µM | IC50 (NCI-H460): 2.19 µM | IC50 (NCI-H82): 2.59 µM | IC50 (NCI-H2126): 4.63 µM | IC50 (HOP-62): 7.77 µM | IC50 (HCC78): 10 µM | IC50 (Toledo): 1.72 µM | IC50 (SU-DHL-1): 3.31 µM | IC50 [8]: 8.56 µM | IC50 (M14): 0.698 µM | IC50 (UACC-257): 1.87 µM | IC50 (LP-1): 3.48 µM | IC50 (U-266): 5.93 µM | IC50 (U2OS [9]): 2.09 µM | IC50 (CAKI-1): 2 µM | IC50 (786-0): 0.917 µM | IC50 [10]: < 10 µM | Activity (HeLa [11]): Active | Activity (HeLa [12]): Active | Activity (HeLa [13]): Active | Activity (A2780): Active | Activity (HCT-116): Active | Activity [14]: Non-Toxic | Activity (U2OS [15]): Active | Cmax [16]: 4.79 µM
